Reference: ChEMBL document CHEMBL1131975, “Synthesis and antitumor activity of bithienyl-pyrimidine derivatives with electrostatic binding side chains” (Bioorg Med Chem Lett, 1999)
In brackets after ≈: the same amount, converted by molar mass.

Experiments:
[1] = tested on: HEp-2; assay: In vitro cytotoxicity against human larynx carcinoma (Hep-2); type: functional, cell-based
[2] = tested on: HeLa; assay: In vitro cytotoxicity against human cervical carcinoma (Hela) cells at dose 50 ug/mL; type: functional, cell-based
[3] = tested on: KB; assay: In vitro cytotoxicity against human oral epidermoid carcinoma (KB) cells; type: functional, cell-based
[4] = tested on: Nucleic Acid; assay: Evaluated for binding affinity with DNA at a pH of 8 by Fluorimetric method; type: nucleic-acid assay
[5] = tested on: COLO 205; assay: In vitro cytotoxicity against human colon carcinoma (Colon-205) cells; type: functional, cell-based

K ass [4]	SMILES	IC50 [1]	IC50 [2]	IC50 [3]	IC50 [5]
3e+07 M⁻¹	CN(C)CCCOc1nccc(-c2ccc(-c3cccs3)s2)n1	11 µg/mL (≈ 31.8 µM)	7 µg/mL (≈ 20.3 µM)	5 µg/mL (≈ 14.5 µM)	7 µg/mL (≈ 20.3 µM)
2.1e+07 M⁻¹	CN(C)CCOc1nccc(-c2ccc(-c3cccs3)s2)n1	16 µg/mL (≈ 48.3 µM)	15 µg/mL (≈ 45.3 µM)	17 µg/mL (≈ 51.3 µM)	12 µg/mL (≈ 36.2 µM)
6.5e+06 M⁻¹	CN(C)CCSc1nccc(-c2ccc(-c3cccs3)s2)n1	50 µg/mL (≈ 144 µM)	25 µg/mL (≈ 71.9 µM)	50 µg/mL (≈ 144 µM)	30 µg/mL (≈ 86.3 µM)
	CN(C)CCCOc1nccc(-c2cccs2)n1	> 50 µg/mL	> 50 µg/mL	> 50 µg/mL	> 50 µg/mL
	CN(C)CCSc1nccc(-c2cccs2)n1	> 50 µg/mL	> 50 µg/mL	> 50 µg/mL	> 50 µg/mL
	CN(C)CCOc1nccc(-c2cccs2)n1	> 50 µg/mL	> 50 µg/mL	> 50 µg/mL	> 50 µg/mL
